System: mouse MC3T3 E1 osteoblast cultures
Test: Cell adhesion test on RGD-peptide-coated titanium surfaces
Assay type: cell-based
Details: 50,000 cells/cm^2 seeded, one hour in serum-free medium at 37° C.; FIG. 2; compared with JAU311003, all concentrations measured
Experimental: Ti or TiAl6V4 moldings having a diameter of 10 mm and a height of 1-2 mm are cleaned.
The moldings are transferred into 48-well plates (Costar, “non-tissue culture treated” Art. No. 3574). For bonding of the bioactive, cell adhesion-promoting molecules B (where B can be a cyclopeptide, peptide mimetic or linear peptide) to the prepared moldings, stock solutions containing B molecules (“B solutions”) are prepared in a final concentration of 1 mM in an aqueous buffer. Concentration series with the “B solution” final concentrations of 1 nM, 10 nM, 100 nM, 1 μM, 10 μM and 100 μM in each case are subsequently prepared by dilution with buffer. The moldings are covered with 250 μl of the respective B solutions in each case and subsequently incubated at room temperature for 18-24 hours. For removal of unbound B molecules, the samples are washed three times with buffer and stored in buffer overnight. […]
The adhesion of mouse MC3T3 E1 osteoblast cultures to RGD-peptide-coated titanium surfaces in vitro was investigated. 50,000 cells/cm^2 were seeded, and the proportion of adhered cells was determined after incubation for one hour in serum-free medium at 37° C./95% atmospheric humidity. • Cell adhesion rate [%]=adhered cells/seeded cells×100 • Peptide: cell adhesion rate [%] • The results can be found in the figures.

Substance: cyclo(Arg-Gly-Asp-D-Phe-Lys(^εNH—[CO—(CH2)5—NH]3—(CO—C6H3(CH2PO3H2)2)) [CD 135]
- Cell adhesion rate: higher cell adhesion rate for all concentrations measured

From patent US20050261169A1, “Peptide and peptide mimetic derivatives having integrin inhibitor properties III” (priority 2003, published 2005)
